Test results: ChEMBL document CHEMBL5055656, “Synthesis of novel indole-thiazolidinone hybrid structures as promising scaffold with anticancer potential” (Bioorg Med Chem, 2021)
The source made the active and inactive calls. No cut-off for these calls is given here.

Key:
HepG2 [1] = test: Induction of DNA damage in human HepG2 cells assessed as increase in tail length incubated at 0.5 uM measured after 24 hrs by alkaline Comet assay; assay type: functional
Salmon testes DNA [2] = test: Displacement of methyl green from salmon sperm DNA at 1 uM measured after 2 hrs by fluorescence plate reader method relative to control; assay type: cell-based; conditions: Salmo salar, Spermatozoa
HepG2 [3] = test: Induction of apoptosis in human HepG2 cells assessed as effect on phospho-Rb expression at 1.6 uM after 24 hrs by Western blot analysis; assay type: functional, cell-based
HCT-116 [4] = test: Induction of DNA damage in human HCT-116 cells assessed as increase in tail length incubated at 0.5 uM measured after 24 hrs by alkaline Comet assay; assay type: functional
HCT-116 [5] = test: Induction of cell cycle arrest in human HCT-116 cells assessed as decrease in phospho-Rb expression measured after 24 hrs by Western blot analysis; assay type: functional, cell-based
HepG2 [6] = test: Induction of apoptosis in human HepG2 cells assessed as increase in Bax expression at 1.6 uM after 24 hrs by Western blot analysis; assay type: functional, cell-based
HepG2 [7] = test: Cytotoxicity against human HepG2 cells assessed as cell growth inhibition measured after 72 hrs by MTT assay; assay type: functional
HepG2 [8] = test: Induction of apoptosis in human HepG2 cells assessed as increase in Cdk2 expression at 1.6 uM after 24 hrs by Western blot analysis; assay type: functional, cell-based
HepG2 [9] = test: Induction of DNA damage in human HepG2 cells assessed as increase in olive tail moment incubated at 0.5 uM measured after 24 hrs by alkaline Comet assay; assay type: functional
[10] = Cytotoxicity against human HaCaT cells assessed as cell growth inhibition measured after 72 hrs by MTT assay; assay type: cell-based
WM793 = test: Cytotoxicity against human WM793 cells assessed as cell growth inhibition measured after 72 hrs by MTT assay; assay type: functional
BALB/3T3 [11] = test: Induction of DNA damage in mouse BALB/3T3 cells assessed as increase in olive tail moment incubated at 1.6 uM measured after 24 hrs by alkaline Comet assay; assay type: cell-based; conditions: balb/3t3, 24 h
THP-1 = test: Cytotoxicity against human THP-1 cells assessed as cell growth inhibition measured after 72 hrs by MTT assay; assay type: functional
[12] = Cytotoxicity against mouse BALB/3T3 cells assessed as cell growth inhibition measured after 72 hrs by MTT assay; assay type: cell-based
MCF7 [13] = test: Induction of apoptosis in human MCF7 cells assessed as activation of cleaved PARP1 expression at 0.7 uM incubated for 24 hrs by Western blot analysis; assay type: functional, cell-based
HCT-116 [14] = test: Cytotoxicity against human HCT-116 cells assessed as cell growth inhibition measured after 72 hrs by MTT assay; assay type: functional
BALB/3T3 [15] = test: Induction of DNA damage in mouse BALB/3T3 cells assessed as increase in tail length incubated at 1.6 uM measured after 24 hrs by alkaline Comet assay; assay type: cell-based; conditions: balb/3t3, 24 h
HCT-116 [16] = test: Induction of apoptosis in human HCT-116 cells assessed as activation of cleaved PARP1 expression at 0.7 uM incubated for 24 hrs by Western blot analysis; assay type: functional, cell-based
HepG2 [17] = test: Induction of apoptosis in human HepG2 cells assessed as increase in phospho-Chk2 expression at 1.6 uM after 24 hrs by Western blot analysis; assay type: functional, cell-based
HCT-116 [18] = test: Induction of DNA damage in human HCT-116 cells assessed as increase in olive tail moment incubated at 0.5 uM measured after 24 hrs by alkaline Comet assay; assay type: functional
MCF7 [19] = test: Cytotoxicity against human MCF7 cells assessed as cell growth inhibition measured after 72 hrs by MTT assay; assay type: functional
HeLa = test: Cytotoxicity against human HeLa cells assessed as cell growth inhibition measured after 72 hrs by MTT assay; assay type: functional
A549 = test: Cytotoxicity against human A549 cells assessed as cell growth inhibition measured after 72 hrs by MTT assay; assay type: functional
Salmon testes DNA [20] = test: Displacement of methyl green from salmon sperm DNA at 10 uM measured after 2 hrs by fluorescence plate reader method relative to control; assay type: cell-based; conditions: Salmo salar, Spermatozoa
[21] = Selectivity index, ratio of GI50 for human HaCaT cells to GI50 for human THP-1 cells
[22] = Selectivity index, ratio of GI50 for human HaCaT mouse BALA/3T3 cells to GI50 for human A549 cells; assay type: toxicity; conditions: read-out: RatioGI50
[23] = Selectivity index, ratio of GI50 for human HaCaT cells to GI50 for human HeLa cells; assay type: toxicity; conditions: HaCaT cells versus HeLa cells, read-out: RatioGI50
[24] = Selectivity index, ratio of GI50 for human HaCaT cells to GI50 for human WM793 cells
[25] = Selectivity index, ratio of GI50 for human HaCaT cells to GI50 for human HepG2 cells; assay type: toxicity; conditions: HaCaT cells versus HepG2 cells, read-out: RatioGI50
[26] = Selectivity index, ratio of GI50 for human HaCaT cells to GI50 for human MCF7 cells; assay type: toxicity; conditions: HaCaT cells versus MCF7 cells, read-out: RatioGI50
[27] = Selectivity index, ratio of GI50 for mouse BALA/3T3 cells to GI50 for human WM793 cells
[28] = Selectivity index, ratio of GI50 for mouse BALA/3T3 cells to GI50 for human THP-1 cells
[29] = Selectivity index, ratio of GI50 for human HaCaT cells to GI50 for human A549 cells; assay type: toxicity; conditions: HaCaT cells versus A549 cells, read-out: RatioGI50
[30] = Selectivity index, ratio of GI50 for mouse BALA/3T3 cells to GI50 for human HCT-116 cells; assay type: toxicity; conditions: BALA/3T3 cells versus HCT-116 cells, read-out: RatioGI50
[31] = Selectivity index, ratio of GI50 for mouse BALA/3T3 cells to GI50 for human HepG2 cells; assay type: toxicity; conditions: BALA/3T3 cells versus HepG2 cells, read-out: RatioGI50
[32] = Selectivity index, ratio of GI50 for mouse BALA/3T3 cells to GI50 for human HeLa cells; assay type: toxicity; conditions: BALA/3T3 cells versus HeLa cells, read-out: RatioGI50
[33] = Selectivity index, ratio of GI50 for mouse BALA/3T3 cells to GI50 for human MCF7 cells; assay type: toxicity; conditions: BALA/3T3 cells versus MCF7 cells, read-out: RatioGI50
[34] = Selectivity index, ratio of GI50 for human HaCaT cells to GI50 for human HCT-116 cells; assay type: toxicity; conditions: HaCaT cells versus HCT-116 cells, read-out: RatioGI50
[35] = Cytotoxicity against human HaCaT cells assessed as cell growth inhibition at 100 uM measured after 72 hrs by MTT assay relative to control; assay type: cell-based; conditions: read-out: Activity

Row | SMILES | GI50 (HepG2 [7]) [µM] | GI50 at 72 h [10] [µM] | GI50 (WM793) [µM] | GI50 (THP-1) [µM] | GI50 at 72 h [12] [µM] | GI50 (HCT-116 [14]) [µM] | GI50 (MCF7 [19]) [µM] | GI50 (HeLa) [µM] | GI50 (A549) [µM] | RatioGI50 [21] | selectivity ratio [22] | selectivity ratio [23] | RatioGI50 [24] | selectivity ratio [25] | selectivity ratio [26] | RatioGI50 [27] | RatioGI50 [28] | selectivity ratio [29] | selectivity ratio [30] | selectivity ratio [31] | other results
1 | COc1cccc2c1C(=O)c1c(O)c3c(c(O)c1C2=O)C[C@@](O)(C(=O)CO)C[C@@H]3O[C@H]1C[C@H](N)[C@H](O)[C@H](C)O1 [DOXORUBICIN] | 0.7 | 0.9 | 0.6 | 0.6 | 0.6 | 0.6 | 0.4 | 0.3 | 0.6 |  |  |  |  |  |  |  |  |  |  |  | Activity (HepG2 [1]): 23.4%; Activity (Salmon testes DNA [2]): 29.2%; Activity (HepG2 [3]): Active; Activity (HCT-116 [4]): 28.4%; Activity (HCT-116 [5]): Active; Activity (HepG2 [6]): Active; Activity (HepG2 [8]): Active; Activity (HepG2 [9]): 6.92; Activity (BALB/3T3 [11]): 5.9; Activity (MCF7 [13]): Active; Activity (BALB/3T3 [15]): 15.9%; Activity (HCT-116 [16]): Active; Activity (HepG2 [17]): Active; Activity (HCT-116 [18]): 10.3; Activity (Salmon testes DNA [20]): 69.7%
2 | COC(=O)c1[nH]c2ccc(F)cc2c1/C=C1\SC(=O)NC1=S | 60.9 | 83.1 | 83.1 | 28.5 | 89.2 | 45.1 | 52.5 | 55 | 8.7 | 3.02 | 9.9 | 1.57 | 1.04 | 1.41 | 1.64 | 1.04 | 3.02 | 9.9 | 1.91 | 1.41 | selectivity ratio [32]: 1.57; selectivity ratio [33]: 1.64; selectivity ratio [34]: 1.91
3 | COC(=O)c1[nH]c2ccc(F)cc2c1C=O | > 100 | 69.3 | 82.5 | 7.7 | 64 | > 100 | > 100 | 100 | 44.8 | 8.66 | 1.49 | 0.67 | 0.81 | 0.67 | 0.67 | 0.81 | 8.66 | 1.49 | 0.67 | 0.67 | selectivity ratio [32]: 0.67; selectivity ratio [33]: 0.67; selectivity ratio [34]: 0.67
4 | COC(=O)c1[nH]c2ccc(F)cc2c1/C=C1\SC(N)=NC1=O | 49.8 | > 100 | 98.6 | 100 | 30.3 | 9.5 | 67.7 | 93.3 | 62.7 | 0.65 | 1.04 | 0.7 | 0.66 | 1.31 | 0.96 | 0.66 | 0.65 | 1.04 | 6.86 | 1.31 | inhibition at 72 h, 100 µM [35]: 20.2%; selectivity ratio [32]: 0.7; selectivity ratio [33]: 0.96; selectivity ratio [34]: 6.86
5 | COC(=O)c1[nH]c2ccc(F)cc2c1/C=C1\NC(=S)NC1=O | 33.9 | > 100 | 84.2 | 58.3 | > 100 | 53 | 63.7 | 58.1 | 49.2 | 1.72 | 2.03 | 1.72 | 1.19 | 2.95 | 1.57 | 1.19 | 1.72 | 2.03 | 1.89 | 2.95 | inhibition at 72 h, 100 µM [35]: 43.3%; selectivity ratio [32]: 1.72; selectivity ratio [33]: 1.57; selectivity ratio [34]: 1.89
6 | COC(=O)c1[nH]c2ccc(F)cc2c1/C=C1\SC(=O)NC1=O | 29.8 | > 100 | 83.1 | 45 | > 100 | 67.6 | 80.7 | 47.6 | 25.4 | 1.72 | 3.94 | 2.1 | 1.2 | 3.36 | 1.24 | 1.2 | 1.72 | 3.94 | 1.48 | 3.36 | inhibition at 72 h, 100 µM [35]: 43.4%; selectivity ratio [32]: 2.1; selectivity ratio [33]: 1.24; selectivity ratio [34]: 1.48
